Assay results reported in the supplement of paper PMC5412046.
Structures can show the parent of a compound that is named as a salt.

Columns and labels:
SB.mhdgc-1 [1] = assay: viability at highest tested concentration (MAXR) relative to DMSO; higher = less cytotoxic; conditions: SB.mhdgc-1 (hereditary c.1380delA CDH1 gastric cancer)
Summary of the method: (§1)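 Compound in DMSO was pinned (23 nL) at 11 threefold-diluted concentrations into wells containing 500 patient-derived gastric cancer cells, hereditary or sporadic, in 5 μL medium per 1536 well. Cells were incubated for 48 h, then exposed to CellTiter-Glo for 30 min at room temperature. Luminescence was measured on a ViewLux. The values are viability normalised to DMSO, either at the highest concentration or as trapezoidal area under the curve.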

SB.msgc-1 [2] = assay: as above; conditions: SB.msgc-1 (sporadic gastric cancer)
Summary of the method: as §1

SB.mhdgc-1 [3] = assay: area under the dose-response curve of % viability (trapezoidal, 11 doses) (% viability x log10 concentration); higher = less cytotoxic; conditions: SB.mhdgc-1 (hereditary c.1380delA CDH1 gastric cancer)
Summary of the method: as §1

SB.msgc-1 [4] = assay: as above; conditions: SB.msgc-1 (sporadic gastric cancer)
Summary of the method: as §1

Question: With `C/C(=C\c1csc(C)n1)[C@@H]1C[C@@H]2O[C@]2(C)CCC[C@H](C)[C@H](O)[C@@H](C)C(=O)C(C)(C)[C@@H](O)CC(=O)O1` [Epothilone B] (top concentration 46.0829 µM) as the compound, how does the viability (SB.mhdgc-1 [1]) read?
Answer: 33.9%

Question: And the viability (SB.msgc-1 [2])?
Answer: 46.2%

Question: And the “area under the dose-response curve” value (SB.mhdgc-1 [3])?
Answer: 245

Question: And the “area under the dose-response curve” value (SB.msgc-1 [4])?
Answer: 217

Question: How did the viability (SB.mhdgc-1 [1]) turn out when `CC/1=C(/N2[C@H](SC1)[C@H](NC(=O)[C@H](N)\C3=C\C\C=C/C3)C2=O)C(O)=O` [Cephradine] (top concentration 46.0829 µM) was run?
Answer: 108%

Question: What about the viability (SB.msgc-1 [2]) of the same compound?
Answer: 121%

Question: And the “area under the dose-response curve” value (SB.mhdgc-1 [3])?
Answer: 571

Question: And the “area under the dose-response curve” value (SB.msgc-1 [4])?
Answer: 538

Question: `CCc1cc(Nc2nccc(-c3c(-c4ccc(OC)c(C(=O)Nc5c(F)cccc5F)c4)nc4ccccn34)n2)c(OC)cc1N1CCC(N2CCN([S+](C)(=O)[O-])CC2)CC1` (top concentration 46.0829 µM) was tested. Which viability (SB.mhdgc-1 [1]) did it give?
Answer: 9.39%

Question: And the viability (SB.msgc-1 [2])?
Answer: 27.3%

Question: And the “area under the dose-response curve” value (SB.mhdgc-1 [3])?
Answer: 251

Question: And the “area under the dose-response curve” value (SB.msgc-1 [4])?
Answer: 405

Question: Which viability (SB.mhdgc-1 [1]) does the source give for `C=CC(=O)N1CCC[C@@H](n2nc(-c3ccc(Oc4ccccc4)cc3)c3c(N)ncnc32)C1` (top concentration 46.0829 µM) here?
Answer: 3.72%

Question: What about the viability (SB.msgc-1 [2]) of the same compound?
Answer: 57.9%

Question: And the “area under the dose-response curve” value (SB.mhdgc-1 [3])?
Answer: 362

Question: What about the “area under the dose-response curve” value (SB.msgc-1 [4]) of the same compound?
Answer: 327

Question: How did the viability (SB.mhdgc-1 [1]) turn out when `CCN1CCN(CC1)CC(=O)NC2=CC=C(C3=C2C4=C(S3)C=CC=C4)C5=C6O\C(=C/C(=O)C6=CC=C5)N7CCOCC7` (top concentration 46.0829 µM) was run?
Answer: 0.471%

Question: And the viability (SB.msgc-1 [2])?
Answer: 4.65%

Question: What about the “area under the dose-response curve” value (SB.mhdgc-1 [3]) of the same compound?
Answer: 336

Question: And the “area under the dose-response curve” value (SB.msgc-1 [4])?
Answer: 352

Question: What does the source list for `NC(=O)c1cccc(N)c1` (top concentration 46.0829 µM)?
Answer: viability (SB.mhdgc-1 [1]): 82.3%; viability (SB.msgc-1 [2]): 79.2%; area under the dose-response curve (SB.mhdgc-1 [3]): 494; area under the dose-response curve (SB.msgc-1 [4]): 485

Question: With `CC(C)c1ccc2c(c1)c(SC(C)(C)C)c(CC(C)(C)C(=O)[O-])n2Cc1ccc(Cl)cc1` [MK-886] (top concentration 46.0829 µM) as the compound, how does the viability (SB.mhdgc-1 [1]) read?
Answer: 25.9%

Question: And the viability (SB.msgc-1 [2])?
Answer: 19%

Question: What about the “area under the dose-response curve” value (SB.mhdgc-1 [3]) of the same compound?
Answer: 473

Question: And the “area under the dose-response curve” value (SB.msgc-1 [4])?
Answer: 331

Question: Which viability (SB.mhdgc-1 [1]) does the source give for `O=C(NNC(=O)c1ccc(CN[S+](=O)([O-])c2ccc(F)c(Cl)c2)cc1)c1ccccc1` [TCN-201] (top concentration 46.0829 µM) here?
Answer: 103%

Question: What about the viability (SB.msgc-1 [2]) of the same compound?
Answer: 98.1%

Question: What about the “area under the dose-response curve” value (SB.mhdgc-1 [3]) of the same compound?
Answer: 554

Question: What about the “area under the dose-response curve” value (SB.msgc-1 [4]) of the same compound?
Answer: 495

Question: With `COC(=O)N[C@H](C(=O)N1CCC[C@H]1c1ncc(-c2ccc(-c3ccc(-c4cnc([C@@H]5CCCN5C(=O)[C@@H](NC(=O)OC)C(C)C)[nH]4)cc3)cc2)[nH]1)C(C)C` [Daclatasvir dihydrochloride] (top concentration 46.0829 µM) as the compound, how does the viability (SB.mhdgc-1 [1]) read?
Answer: 3.05%

Question: What about the viability (SB.msgc-1 [2]) of the same compound?
Answer: 4.16%

Question: And the “area under the dose-response curve” value (SB.mhdgc-1 [3])?
Answer: 488

Question: What about the “area under the dose-response curve” value (SB.msgc-1 [4]) of the same compound?
Answer: 541

Question: Which results are given for `CC(C)c1ccc2oc3nc(N)c(C(=O)O)cc3c(=O)c2c1` [Amlexanox] (top concentration 46.0829 µM)?
Answer: viability (SB.mhdgc-1 [1]): 70%; viability (SB.msgc-1 [2]): 74.9%; area under the dose-response curve (SB.mhdgc-1 [3]): 477; area under the dose-response curve (SB.msgc-1 [4]): 506

Question: Which viability (SB.mhdgc-1 [1]) does the source give for `COCCCOc1cc(C[C@@H](C[C@H](N)[C@@H](O)C[C@H](C(=O)NCC(C)(C)C(N)=O)C(C)C)C(C)C)ccc1OC` [Aliskiren hemifumarate] (top concentration 46.0829 µM) here?
Answer: 121%

Question: What about the viability (SB.msgc-1 [2]) of the same compound?
Answer: 125%

Question: What about the “area under the dose-response curve” value (SB.mhdgc-1 [3]) of the same compound?
Answer: 575

Question: What about the “area under the dose-response curve” value (SB.msgc-1 [4]) of the same compound?
Answer: 581

Question: `NC(=O)c1nnn(Cc2cc(Cl)c(C(=O)c3ccc(Cl)cc3)c(Cl)c2)c1N` [Carboxyamidotriazole] (top concentration 46.0829 µM) was tested. Which viability (SB.mhdgc-1 [1]) did it give?
Answer: 46.1%

Question: What about the viability (SB.msgc-1 [2]) of the same compound?
Answer: 27.3%

Question: And the “area under the dose-response curve” value (SB.mhdgc-1 [3])?
Answer: 585

Question: What about the “area under the dose-response curve” value (SB.msgc-1 [4]) of the same compound?
Answer: 492

Question: With `CCc1ccc(OCc2ccccc2C(=O)Nc2ccc3nc(C)cc(N)c3c2)cc1` [JTC-801] (top concentration 46.0829 µM) as the compound, how does the viability (SB.mhdgc-1 [1]) read?
Answer: 4.72%

Question: And the viability (SB.msgc-1 [2])?
Answer: 3.31%

Question: What about the “area under the dose-response curve” value (SB.mhdgc-1 [3]) of the same compound?
Answer: 416

Question: What about the “area under the dose-response curve” value (SB.msgc-1 [4]) of the same compound?
Answer: 475

Question: How did the viability (SB.mhdgc-1 [1]) turn out when `CC(C)(C)c1cc(C=C(C#N)C#N)cc(Br)c1O` [AG-1024] (top concentration 46.0829 µM) was run?
Answer: 9.2%

Question: And the viability (SB.msgc-1 [2])?
Answer: 24.4%

Question: What about the “area under the dose-response curve” value (SB.mhdgc-1 [3]) of the same compound?
Answer: 499

Question: And the “area under the dose-response curve” value (SB.msgc-1 [4])?
Answer: 422

Question: With `COc1ccc(CC2c3cc(OC)c(OC)cc3CC[N+]2(C)CCC(=O)OCCCCCOC(=O)CC[N+]2(C)CCc3cc(OC)c(OC)cc3C2Cc2ccc(OC)c(OC)c2)cc1OC.O=S(=O)([O-])c1ccccc1.O=S(=O)([O-])c1ccccc1` (stereo not drawn) [Cisatracurium besylate] (top concentration 7.37327 µM) as the compound, how does the viability (SB.mhdgc-1 [1]) read?
Answer: 82.9%

Question: What about the viability (SB.msgc-1 [2]) of the same compound?
Answer: 94%

Question: And the “area under the dose-response curve” value (SB.mhdgc-1 [3])?
Answer: 511

Question: And the “area under the dose-response curve” value (SB.msgc-1 [4])?
Answer: 558

Question: What does the source list for `CN(C)CCc1c[nH]c2ccc(Cn3cncn3)cc12` [Rizatriptan benzoate] (top concentration 46.0829 µM)?
Answer: viability (SB.mhdgc-1 [1]): 107%; viability (SB.msgc-1 [2]): 71.7%; area under the dose-response curve (SB.mhdgc-1 [3]): 589; area under the dose-response curve (SB.msgc-1 [4]): 392

Question: What does the source list for `CN(C)CCc1c[nH]c2ccc(C[C@H]3COC(=O)N3)cc12` [Zolmitriptan] (top concentration 46.0829 µM)?
Answer: viability (SB.mhdgc-1 [1]): 68.4%; viability (SB.msgc-1 [2]): 102%; area under the dose-response curve (SB.mhdgc-1 [3]): 552; area under the dose-response curve (SB.msgc-1 [4]): 569

Question: What does the source list for `CC(CCc1ccc(O)cc1)NCCc1ccc(O)c(O)c1` (stereo not drawn) [Dobutamine hydrochloride] (top concentration 46.0829 µM)?
Answer: viability (SB.mhdgc-1 [1]): 49.9%; viability (SB.msgc-1 [2]): 87.6%; area under the dose-response curve (SB.mhdgc-1 [3]): 453; area under the dose-response curve (SB.msgc-1 [4]): 538

Question: How did the viability (SB.mhdgc-1 [1]) turn out when `COc1cnc(N[S+](=O)([O-])c2ccc(N)cc2)nc1` [Sulfameter] (top concentration 46.0829 µM) was run?
Answer: 65.7%

Question: And the viability (SB.msgc-1 [2])?
Answer: 43.3%

Question: What about the “area under the dose-response curve” value (SB.mhdgc-1 [3]) of the same compound?
Answer: 509

Question: And the “area under the dose-response curve” value (SB.msgc-1 [4])?
Answer: 512

Question: Which results are given for `Clc1ccccc1C(c1ccccc1)(c1ccccc1)n1ccnc1` [Clotrimazole] (top concentration 46.0829 µM)?
Answer: viability (SB.mhdgc-1 [1]): 72.4%; viability (SB.msgc-1 [2]): 64.8%; area under the dose-response curve (SB.mhdgc-1 [3]): 527; area under the dose-response curve (SB.msgc-1 [4]): 525

Question: Which results are given for `CCCN[S+](=O)([O-])Nc1ncnc(OCCOc2ncc(Br)cn2)c1-c1ccc(Br)cc1` [Macitentan] (top concentration 46.0829 µM)?
Answer: viability (SB.mhdgc-1 [1]): 121%; viability (SB.msgc-1 [2]): 120%; area under the dose-response curve (SB.mhdgc-1 [3]): 577; area under the dose-response curve (SB.msgc-1 [4]): 594

Question: `COC[C@H]1OC(=O)C2=COC3=C2[C@@]1(C)\C4=C(C5CCC(=O)[C@@]5(C)C[C@H]4OC(C)=O)/C3=O` (stereo partly drawn) [Wortmannin] (top concentration 46.0829 µM) was tested. Which viability (SB.mhdgc-1 [1]) did it give?
Answer: 51.1%

Question: What about the viability (SB.msgc-1 [2]) of the same compound?
Answer: 43.5%

Question: What about the “area under the dose-response curve” value (SB.mhdgc-1 [3]) of the same compound?
Answer: 443

Question: And the “area under the dose-response curve” value (SB.msgc-1 [4])?
Answer: 406
